# Source: patent US11684607B2, “Secnidazole for use in the treatment of bacterial vaginosis” (priority 2014, dated 2023)
# How the values were obtained:
# bacterial vaginosis = test: Phase 2 double-blind placebo-controlled study, clinical outcome responder (clinical cure) in women with bacterial vaginosis; type: in vivo, human
# From the text: (§1) The study was designed in accordance with FDA guidance for pivotal bacterial vaginosis trials with a primary end point clinical cure in the Modified Intent-to-Treat (mITT) population at day 21 to 30 versus placebo (two-sided test at alpha=0.05). Subjects were recruited to the study they presented with the following Amsel criteria: presence of typical discharge. a positive KOH Whiff test vaginal fluid pH greater than or equal to 4.7, and the presence of “clue cells” (epithelial cells with adhering bacteria) on microscopic examination.
# [1] = Safety evaluation of SYM-1219 alone or in combination with EE2/NET; type: in vivo, human; details: 2 g
# Experimental: Methods: Fifty-four (54) healthy female subjects, ages 18-65, received EE2/NET alone and in combination, where SYM-1219+EE2/NET were co-administered on Day 1 (Group B1; N=27) or SYM-1219 on Day 1 and EE2/NET on Day 2 (Group B2; N=27). Serial blood samples were drawn to measure plasma concentrations of EE2/NET. […] Safety was evaluated by recording of adverse events, vital signs, ECGs and standard laboratory tests.
# [2] = design: species or system human; details: in vivo
# From the text: as §1
compound,measurement,setting,value
"Cc1ncc([N+](=O)[O-])n1CC(C)O (stereo not shown) [SYM-1219, 1-(2-hydroxypropyl)-2-methyl-5-nitromidazole]",effectiveness in treating bacterial vaginosis,"bacterial vaginosis; 2 gram single dose, subjects with 3 or fewer as well as 4 or more episodes in the past 12 months",effective
same,effectiveness for bacterial vaginosis compared with placebo,bacterial vaginosis; 2 gram single-dose,effective
same,clinical cure rate,"bacterial vaginosis; single 2 g oral dose, 21-30 days after treatment",67.7%
same,"changes in vital signs, ECG or laboratory parameters",[1],no significant changes
same,safety and tolerability,[1],safe and well-tolerated
same,Acute sinusitis: Events,"[2]; female, human",0 n
same,Acute sinusitis: Subjects,"[2]; female, human",0 n
same,Adverse Event: Abdominal pain,"[2]; female, human",0%
same,Adverse Event: Diarrhea,"[2]; female, human",0%
same,Adverse Event: Fungal Infection,"[2]; female, human",3%
same,Adverse Event: Headache,"[2]; female, human",1%
same,Adverse Event: Metallic/Unusual Taste,"[2]; female, human",1%
same,Adverse Event: Nausea,"[2]; female, human",1%
same,Adverse Event: Vulva/Vaginal Irritation,"[2]; female, human",1%
same,Alanine aminotransferase increased: Events,"[2]; female, human",1 n
same,"Any Adverse Event, Overall: Events","[2]; female, human",19 n
same,Aspartate aminotransferase increased: Events,"[2]; female, human",1 n
same,Candida infection: Events,"[2]; female, human",0 n
same,Candida infection: Subjects,"[2]; female, human",0 n
same,Chlamydial infection: Events,"[2]; female, human",1 n
same,Chromaturia: Events,"[2]; female, human",1 n
same,Dizziness: Events,"[2]; female, human",1 n
same,Dysgeusia: Events,"[2]; female, human",1 n
same,Fungal infection: Events,"[2]; female, human",0 n
same,Fungal infection: Subjects,"[2]; female, human",0 n
same,"Gastrointestinal disorders, Overall: Events","[2]; female, human",1 n
same,Gonorrhoea: Events,"[2]; female, human",1 n
same,Headache: Events,"[2]; female, human",1 n
same,"Infections and infestations, Overall: Events","[2]; female, human",7 n
same,"Injury, poisoning and procedural complications, Overall: Events","[2]; female, human",1 n
same,"Investigations, Overall: Events","[2]; female, human",2 n
same,Nausea: Events,"[2]; female, human",1 n
same,"Nervous system disorders, Overall: Events","[2]; female, human",3 n
same,Oropharyngeal pain: Events,"[2]; female, human",1 n
same,"Renal and urinary disorders, Overall: Events","[2]; female, human",1 n
same,"Reproductive system and breast disorders, Overall: Events","[2]; female, human",3 n
same,"Respiratory, thoracic and mediastinal disorders, Overall: Events","[2]; female, human",1 n
same,"Surgical and medical procedures, Overall: Events","[2]; female, human",0 n
same,"Surgical and medical procedures, Overall: Subjects","[2]; female, human",0 n
same,Thermal burn: Events,"[2]; female, human",1 n
same,Tooth abscess: Events,"[2]; female, human",1 n
same,Tooth extraction: Events,"[2]; female, human",0 n
same,Tooth extraction: Subjects,"[2]; female, human",0 n
same,Tooth infection: Events,"[2]; female, human",1 n
same,Upper respiratory tract infection: Events,"[2]; female, human",0 n
same,Upper respiratory tract infection: Subjects,"[2]; female, human",0 n
same,Urinary tract infection: Events,"[2]; female, human",1 n
same,Vaginal discharge: Events,"[2]; female, human",1 n
same,Vaginal odor: Events,"[2]; female, human",1 n
same,Vulvovaginal mycotic infection: Events,"[2]; female, human",2 n
same,Vulvovaginal pruritus: Events,"[2]; female, human",1 n
same,tolerability,[2],surprisingly well tolerated
